Our source for the inhibition, delta Tm Staurosporine positive control and ΔTm values is ChEMBL document CHEMBL5303766, “Data for DCP probe FHT-2344” (2022).

Broadly, the inhibition is the percentage by which the read-out fell short of the control.

Assay [1] has as its target 5-hydroxytryptamine receptor 1B (Homo sapiens) (UniProt P28222). The following applies: Compound concentration 10.0 uM.
In assay [2] the target is T1, Cytoplasmic tyrosine-protein kinase BMX (Homo sapiens) (UniProt P51813).
T1 sequence (whole entry): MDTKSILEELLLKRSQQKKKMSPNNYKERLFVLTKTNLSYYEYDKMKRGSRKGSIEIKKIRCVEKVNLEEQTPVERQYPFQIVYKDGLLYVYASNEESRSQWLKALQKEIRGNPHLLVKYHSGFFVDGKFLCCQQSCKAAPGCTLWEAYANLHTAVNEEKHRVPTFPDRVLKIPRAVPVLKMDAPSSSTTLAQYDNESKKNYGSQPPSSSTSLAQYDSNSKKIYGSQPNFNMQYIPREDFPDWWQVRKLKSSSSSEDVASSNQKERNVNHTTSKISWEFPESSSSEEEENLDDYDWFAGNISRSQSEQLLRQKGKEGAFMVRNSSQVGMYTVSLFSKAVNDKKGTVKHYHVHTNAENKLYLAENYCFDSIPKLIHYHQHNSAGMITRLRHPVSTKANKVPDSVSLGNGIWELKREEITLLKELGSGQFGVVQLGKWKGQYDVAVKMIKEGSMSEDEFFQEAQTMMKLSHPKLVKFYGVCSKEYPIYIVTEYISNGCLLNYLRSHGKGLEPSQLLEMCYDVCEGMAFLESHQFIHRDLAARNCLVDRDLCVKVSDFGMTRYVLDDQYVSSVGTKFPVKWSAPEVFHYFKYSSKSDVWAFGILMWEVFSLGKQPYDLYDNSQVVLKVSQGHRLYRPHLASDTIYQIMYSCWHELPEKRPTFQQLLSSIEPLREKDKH
Put plainly: BMX SGC Tm panel (DSF). Conditions: for ΔTm: Compound concentration 10.0 uM.

The target of assay [3] is 5-hydroxytryptamine receptor 5A (Homo sapiens) (UniProt P47898). The following applies: Compound concentration 10.0 uM.
Assay [4] concerns the target T2, Serine/threonine-protein kinase 17A (Homo sapiens) (UniProt Q9UEE5).
T2 sequence (whole entry): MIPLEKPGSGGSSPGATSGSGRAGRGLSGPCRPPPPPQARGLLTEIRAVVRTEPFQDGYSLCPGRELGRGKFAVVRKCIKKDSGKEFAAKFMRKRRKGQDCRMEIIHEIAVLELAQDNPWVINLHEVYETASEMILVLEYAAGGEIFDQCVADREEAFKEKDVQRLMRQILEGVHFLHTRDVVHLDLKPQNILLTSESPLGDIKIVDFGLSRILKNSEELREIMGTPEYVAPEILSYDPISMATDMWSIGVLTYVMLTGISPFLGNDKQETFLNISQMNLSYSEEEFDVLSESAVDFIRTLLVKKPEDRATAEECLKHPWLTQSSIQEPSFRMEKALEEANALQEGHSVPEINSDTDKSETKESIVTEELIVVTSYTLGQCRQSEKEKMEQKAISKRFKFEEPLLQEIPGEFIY
Put plainly: STK17A SGC Tm panel (DSF). The following applies: for ΔTm: Compound concentration 10.0 uM.

The target in assay [5] is T3, Serine/threonine-protein kinase 4 (Homo sapiens) (UniProt Q13043).
T3 sequence (whole entry): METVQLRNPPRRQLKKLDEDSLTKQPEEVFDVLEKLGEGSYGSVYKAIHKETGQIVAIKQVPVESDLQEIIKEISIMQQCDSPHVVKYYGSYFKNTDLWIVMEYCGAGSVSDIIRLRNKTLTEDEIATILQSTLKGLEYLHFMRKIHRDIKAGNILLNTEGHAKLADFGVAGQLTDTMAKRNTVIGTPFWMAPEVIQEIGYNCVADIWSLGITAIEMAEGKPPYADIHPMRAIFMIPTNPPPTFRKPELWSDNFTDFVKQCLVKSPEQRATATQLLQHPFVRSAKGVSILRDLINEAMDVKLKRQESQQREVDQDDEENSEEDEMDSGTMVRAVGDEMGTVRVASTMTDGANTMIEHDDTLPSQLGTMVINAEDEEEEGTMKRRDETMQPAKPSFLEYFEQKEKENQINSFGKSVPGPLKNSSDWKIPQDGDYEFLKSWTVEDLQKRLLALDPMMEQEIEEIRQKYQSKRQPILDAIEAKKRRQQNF
Nature of the assay: STK4 SGC Tm panel (DSF). The following applies: for ΔTm: Compound concentration 10.0 uM.

Assay [6] addresses Serine/threonine-protein kinase 38-like (Homo sapiens) (UniProt Q9Y2H1). Put plainly: STK38L SGC Tm panel (DSF). Conditions: for ΔTm: Compound concentration 10.0 uM.
Assay [7] has as its target Kappa-type opioid receptor (Homo sapiens) (UniProt P41145). The following applies: Compound concentration 10.0 uM.
Assay [8] concerns the target T4, Serine/threonine-protein kinase ULK1 (Homo sapiens) (UniProt O75385).
T4 sequence (whole entry): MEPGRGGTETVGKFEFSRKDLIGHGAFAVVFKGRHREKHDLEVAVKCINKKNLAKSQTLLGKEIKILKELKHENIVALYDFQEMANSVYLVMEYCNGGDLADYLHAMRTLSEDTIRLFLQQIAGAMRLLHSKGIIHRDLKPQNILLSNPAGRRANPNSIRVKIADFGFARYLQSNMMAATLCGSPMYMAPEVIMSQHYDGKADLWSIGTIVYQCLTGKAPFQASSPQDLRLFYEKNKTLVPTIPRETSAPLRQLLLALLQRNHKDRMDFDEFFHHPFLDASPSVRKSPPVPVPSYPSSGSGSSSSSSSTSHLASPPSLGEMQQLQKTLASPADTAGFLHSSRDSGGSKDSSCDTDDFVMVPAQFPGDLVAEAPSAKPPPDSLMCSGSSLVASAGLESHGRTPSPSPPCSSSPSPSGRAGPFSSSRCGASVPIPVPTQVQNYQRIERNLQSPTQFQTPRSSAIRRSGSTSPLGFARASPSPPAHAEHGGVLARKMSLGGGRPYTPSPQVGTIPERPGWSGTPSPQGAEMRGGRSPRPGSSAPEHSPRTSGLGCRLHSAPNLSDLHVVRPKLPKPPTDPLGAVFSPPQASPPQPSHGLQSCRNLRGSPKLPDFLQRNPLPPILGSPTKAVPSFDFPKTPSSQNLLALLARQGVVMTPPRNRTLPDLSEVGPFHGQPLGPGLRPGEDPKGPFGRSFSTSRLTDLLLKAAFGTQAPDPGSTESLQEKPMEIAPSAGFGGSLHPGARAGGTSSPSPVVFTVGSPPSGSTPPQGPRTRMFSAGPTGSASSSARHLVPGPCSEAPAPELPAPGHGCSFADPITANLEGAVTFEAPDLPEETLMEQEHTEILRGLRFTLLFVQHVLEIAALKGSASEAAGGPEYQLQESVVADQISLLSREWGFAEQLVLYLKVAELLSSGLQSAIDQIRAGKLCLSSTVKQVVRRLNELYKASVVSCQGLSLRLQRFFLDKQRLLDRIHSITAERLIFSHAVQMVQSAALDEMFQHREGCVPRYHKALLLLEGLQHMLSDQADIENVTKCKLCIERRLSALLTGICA
Put plainly: ULK1 SGC Tm panel (DSF). Conditions: for ΔTm: Compound concentration 10.0 uM.

Serine/threonine-protein kinase 38-like (Homo sapiens), sequence (Q9Y2H1 2-464 limits assumed): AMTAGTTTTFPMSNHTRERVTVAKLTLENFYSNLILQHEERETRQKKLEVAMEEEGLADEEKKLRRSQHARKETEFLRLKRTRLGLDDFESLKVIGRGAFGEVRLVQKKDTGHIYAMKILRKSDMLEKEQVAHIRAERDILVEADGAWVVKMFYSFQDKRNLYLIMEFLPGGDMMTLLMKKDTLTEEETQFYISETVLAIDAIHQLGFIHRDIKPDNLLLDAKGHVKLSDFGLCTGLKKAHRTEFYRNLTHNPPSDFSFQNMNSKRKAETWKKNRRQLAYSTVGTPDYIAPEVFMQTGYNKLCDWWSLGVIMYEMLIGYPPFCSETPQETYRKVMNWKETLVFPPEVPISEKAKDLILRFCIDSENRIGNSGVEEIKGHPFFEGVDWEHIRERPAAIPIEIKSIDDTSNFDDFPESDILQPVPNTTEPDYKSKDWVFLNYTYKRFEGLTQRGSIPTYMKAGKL
5-hydroxytryptamine receptor 1B (Homo sapiens), sequence (P28222 whole entry): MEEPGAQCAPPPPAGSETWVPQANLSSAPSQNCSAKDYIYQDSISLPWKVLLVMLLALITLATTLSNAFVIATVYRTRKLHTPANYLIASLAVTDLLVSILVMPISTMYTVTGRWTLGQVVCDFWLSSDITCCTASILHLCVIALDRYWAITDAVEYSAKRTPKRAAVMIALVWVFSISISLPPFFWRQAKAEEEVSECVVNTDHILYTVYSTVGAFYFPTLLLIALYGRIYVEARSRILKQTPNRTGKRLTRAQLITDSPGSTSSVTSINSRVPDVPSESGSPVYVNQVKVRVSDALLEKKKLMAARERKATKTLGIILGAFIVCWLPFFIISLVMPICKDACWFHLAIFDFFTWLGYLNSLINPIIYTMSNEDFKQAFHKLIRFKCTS
5-hydroxytryptamine receptor 5A (Homo sapiens), sequence (P47898 whole entry): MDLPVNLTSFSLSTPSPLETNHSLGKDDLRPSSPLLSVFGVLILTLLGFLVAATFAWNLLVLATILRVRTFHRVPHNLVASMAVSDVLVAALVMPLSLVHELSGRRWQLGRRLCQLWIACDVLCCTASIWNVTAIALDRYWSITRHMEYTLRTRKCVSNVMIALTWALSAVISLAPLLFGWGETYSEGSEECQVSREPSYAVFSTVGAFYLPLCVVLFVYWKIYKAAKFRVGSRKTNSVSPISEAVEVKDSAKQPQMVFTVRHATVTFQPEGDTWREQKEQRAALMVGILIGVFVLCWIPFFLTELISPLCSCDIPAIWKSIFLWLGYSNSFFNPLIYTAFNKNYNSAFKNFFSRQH
Kappa-type opioid receptor (Homo sapiens), sequence (P41145 whole entry): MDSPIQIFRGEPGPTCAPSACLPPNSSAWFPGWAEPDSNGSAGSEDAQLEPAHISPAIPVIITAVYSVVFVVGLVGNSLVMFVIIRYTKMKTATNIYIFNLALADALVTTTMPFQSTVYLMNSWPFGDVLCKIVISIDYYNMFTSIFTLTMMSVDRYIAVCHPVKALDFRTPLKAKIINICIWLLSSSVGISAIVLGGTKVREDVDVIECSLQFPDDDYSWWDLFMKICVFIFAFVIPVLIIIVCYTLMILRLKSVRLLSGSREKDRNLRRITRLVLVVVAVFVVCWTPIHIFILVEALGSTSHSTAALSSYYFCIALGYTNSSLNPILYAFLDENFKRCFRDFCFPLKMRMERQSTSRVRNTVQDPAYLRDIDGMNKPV

Take `COC[C@H](NC(=O)c1ccn(S(C)(=O)=O)c1)C(=O)Nc1nc(-c2cccc(-c3ccn(C)n3)c2)cs1`: the inhibition was 17.6% in assay [1], 11.2% in assay [3] and 10.7% in assay [7]. Also, the delta Tm Staurosporine positive control amounted to 7.18 in assay [2]; 12.6 in assay [4]; 14.2 in assay [5]; 10.8 in assay [6]; 13.4 in assay [8]. Moreover, the ΔTm in assay [2] was 0.191; in assay [4], 0.566; in assay [5], 0; in assay [6] it was 0.451; in assay [8] it was 0.528.
Turning to `C[C@H](NC(=O)c1cn(C2(C#N)CC2)cn1)C(=O)Nc1nc(-c2cccc(-c3ccn(C)n3)c2)cs1`, the figures for the inhibition in assay [1], in assay [3] and in assay [7] were 27.4%, 13.9% and 4.84%, respectively. The delta Tm Staurosporine positive control in assay [2] worked out at 7.18; in assay [4], 12.6; in assay [5], 14.2; in assay [6], 10.8; in assay [8] it was 13.4. Besides, the ΔTm in assay [2] was 0.254; in assay [4], 1.03; in assay [5], 0; in assay [6], 0.237; in assay [8], 0.0519.
